Test results published in patent US12667104B2, “Herbicidal compositions” (Yissum Research Development Company of the Hebrew …, priority 2019, dated 2026).

Tested on: weeds
Assay: Weed control: small scale field experiment (1 m×1 m plots)
Format: in vivo
Conditions: for herbicidal effect category, 30 days: 30 days after the treatment; for herbicidal effect category, 30 days / herbicidal effect category, 12 days: 1 m×1 m plots, sprayed at 100 liter per hectare, concentration C (% by weight) per composition; for herbicidal effect (in words): small scale field plots, summary of Table 1; for herbicidal effect category, 12 days: 12 days after the treatment
Protocol: The active components(s), the concentration of the dissolved/suspended active components in the aqueous composition (C, expressed as % by weight of the composition) and the mixing ratios in case of multiple components are tabulated in Table 1.
Compositions 1-A to 1-L, 2-O, 2-P and 3-Q to 3-V were prepared by dissolving water-soluble powders or pellets in water, or adding to water sparingly soluble powders, or combination of both, at the concentrations set out in Table 1, to form sprayable solutions/suspensions.
The herbicidal compositions were sprayed at rate of application of 100 liter per hectare.
The herbicidal effect was determined 5, 12 and 30 days after the treatment. To this end, five categories were defined: • A category: complete control of the weeds was achieved. • B category: severe damage was caused to the weeds. • C category: some damage was caused to the weeds. • D category: minor damage was caused to the weeds. • E category: no damage was caused to the weeds.

## [Ca+2].[OH-].[OH-] [Composition 1-G, Ca(OH)2]
  herbicidal effect category, 30 days: D+
  herbicidal effect (in words): poor activity

## O=C([O-])O.[Na+] [Composition 1-C, NaHCO3]
  herbicidal effect category, 12 days: D+

## [Na+].[OH-] [Composition 1-A, NaOH]
  herbicidal effect category, 30 days: B+

## [K+].[OH-] [Composition 1-D, KOH]
  herbicidal effect category, 30 days: B+

## O=C([O-])O.[K+] [Composition 1-F, KHCO3]
  herbicidal effect category, 30 days: C+

## O=C([O-])O.O=C([O-])O.[Ca+2] [Composition 1-I, Ca(HCO3)2]
  herbicidal effect category, 12 days: D+
  herbicidal effect (in words): poor activity
